Tests used:
hNav1.1 (SCN1A) = hNav1.1 (SCN1A) (Homo sapiens, UniProt P35498); assay: Use-dependent inhibition of the CNS Nav1.1 sodium channel; type: cell-based; conditions: use-dependent block, 25 Hz, pulse 20, read-out: Nav1.1 UDB 25 Hz 10 uM
Outline: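 HEK-293 cells stably expressing WT hNav1.1, automated whole-cell patch clamp at 23-25 °C with CsF-based internal and NaCl external solutions, pH 7.35. Compound applied twice, 200 s equilibration; block measured at pulse 20 of a 25 Hz train (0 mV, 20 ms) from −120 mV, as mean % inhibition versus compound-free.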

hNaV1.2 (SCN2A) = biological target: T1, hNaV1.2 (SCN2A) (Homo sapiens, UniProt Q99250); assay: Use-dependent inhibition of the CNS Nav1.2 sodium channel; type: cell-based; conditions: use-dependent block, 25 Hz, pulse 20, read-out: Nav1.2 UDB 25 Hz 10 uM
T1 construct: expressed in transfected cells
Outline: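 Use-dependent block of human Nav1.2 was measured by automated whole-cell patch clamp (QPatch) in HEK-293 cells stably expressing hNaV1.2 with SCN1B and SCN2B. From a holding potential of −120 mV, a train of 20 pulses to 0 mV (20 ms, 25 Hz) was applied. Peak current at pulse 20 was normalized to the first pulse, and percent inhibition was calculated relative to compound-free recordings.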

T1 sequence (Q99250 whole entry): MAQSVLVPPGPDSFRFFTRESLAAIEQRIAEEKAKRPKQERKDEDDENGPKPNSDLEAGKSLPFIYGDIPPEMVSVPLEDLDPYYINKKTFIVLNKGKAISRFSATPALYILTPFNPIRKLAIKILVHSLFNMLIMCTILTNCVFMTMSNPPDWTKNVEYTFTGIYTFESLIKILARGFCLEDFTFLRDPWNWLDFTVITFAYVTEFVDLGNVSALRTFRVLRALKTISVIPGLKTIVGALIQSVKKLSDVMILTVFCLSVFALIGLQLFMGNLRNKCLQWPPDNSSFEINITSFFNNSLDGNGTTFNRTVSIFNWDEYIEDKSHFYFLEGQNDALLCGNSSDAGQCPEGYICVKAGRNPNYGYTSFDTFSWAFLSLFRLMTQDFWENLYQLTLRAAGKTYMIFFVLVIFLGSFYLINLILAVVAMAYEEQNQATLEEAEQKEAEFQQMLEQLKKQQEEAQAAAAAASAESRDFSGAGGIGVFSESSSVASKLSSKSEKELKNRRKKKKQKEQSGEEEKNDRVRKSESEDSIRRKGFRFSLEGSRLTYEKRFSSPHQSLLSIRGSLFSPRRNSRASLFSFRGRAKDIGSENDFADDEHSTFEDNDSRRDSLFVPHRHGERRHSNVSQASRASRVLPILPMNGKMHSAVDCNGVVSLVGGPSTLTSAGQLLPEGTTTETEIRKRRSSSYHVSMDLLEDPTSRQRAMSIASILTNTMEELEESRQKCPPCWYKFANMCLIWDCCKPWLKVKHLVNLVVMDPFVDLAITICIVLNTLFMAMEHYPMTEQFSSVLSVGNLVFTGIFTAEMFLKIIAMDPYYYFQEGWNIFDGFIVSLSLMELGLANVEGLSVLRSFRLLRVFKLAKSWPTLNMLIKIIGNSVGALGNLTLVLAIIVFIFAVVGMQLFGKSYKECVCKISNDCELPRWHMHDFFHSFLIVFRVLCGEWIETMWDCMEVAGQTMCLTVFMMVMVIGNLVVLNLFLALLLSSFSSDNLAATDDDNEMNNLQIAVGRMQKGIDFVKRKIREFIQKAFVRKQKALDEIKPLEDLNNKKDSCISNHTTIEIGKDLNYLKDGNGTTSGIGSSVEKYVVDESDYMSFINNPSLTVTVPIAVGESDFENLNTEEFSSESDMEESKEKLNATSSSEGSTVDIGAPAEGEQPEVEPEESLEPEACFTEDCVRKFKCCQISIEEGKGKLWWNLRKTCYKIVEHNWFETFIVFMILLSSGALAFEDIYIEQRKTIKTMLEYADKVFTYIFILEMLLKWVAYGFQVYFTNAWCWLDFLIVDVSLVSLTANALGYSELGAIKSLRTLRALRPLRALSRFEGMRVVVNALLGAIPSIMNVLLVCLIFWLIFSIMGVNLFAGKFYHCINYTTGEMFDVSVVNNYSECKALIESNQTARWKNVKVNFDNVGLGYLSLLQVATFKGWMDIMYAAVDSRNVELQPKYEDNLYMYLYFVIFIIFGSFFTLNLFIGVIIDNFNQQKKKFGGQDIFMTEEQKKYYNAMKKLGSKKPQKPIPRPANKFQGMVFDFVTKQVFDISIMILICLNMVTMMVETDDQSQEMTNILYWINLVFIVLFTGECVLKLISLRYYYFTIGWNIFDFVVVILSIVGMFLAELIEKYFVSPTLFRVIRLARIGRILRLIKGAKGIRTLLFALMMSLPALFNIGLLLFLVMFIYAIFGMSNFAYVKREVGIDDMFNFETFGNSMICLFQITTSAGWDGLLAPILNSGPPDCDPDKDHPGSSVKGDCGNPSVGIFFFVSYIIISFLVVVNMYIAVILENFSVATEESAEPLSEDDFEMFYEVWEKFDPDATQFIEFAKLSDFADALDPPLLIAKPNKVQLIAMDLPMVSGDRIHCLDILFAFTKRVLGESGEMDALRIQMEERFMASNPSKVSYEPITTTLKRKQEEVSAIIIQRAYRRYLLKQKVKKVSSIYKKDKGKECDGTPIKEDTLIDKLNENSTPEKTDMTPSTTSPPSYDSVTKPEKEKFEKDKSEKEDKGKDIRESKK
T1 sequence (Q07699 19-218 partner): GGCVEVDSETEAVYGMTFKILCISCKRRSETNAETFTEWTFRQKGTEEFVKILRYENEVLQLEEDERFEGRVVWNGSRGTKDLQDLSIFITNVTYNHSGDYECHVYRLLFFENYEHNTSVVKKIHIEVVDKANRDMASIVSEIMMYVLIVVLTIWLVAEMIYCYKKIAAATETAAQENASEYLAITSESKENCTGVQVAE
T1 sequence (O60939 30-215 partner): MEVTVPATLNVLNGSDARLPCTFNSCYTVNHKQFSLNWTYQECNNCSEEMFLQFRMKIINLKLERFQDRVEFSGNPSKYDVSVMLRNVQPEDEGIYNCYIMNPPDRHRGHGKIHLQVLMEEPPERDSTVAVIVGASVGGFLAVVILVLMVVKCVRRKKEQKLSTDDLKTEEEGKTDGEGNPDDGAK

Q: `Cc1cc(-c2ccc(OC(F)(F)F)cc2)cc2c(OCCn3cncn3)noc12` [Example 89, 3-(2-(1H-1,2,4-triazol-1-yl)ethoxy)-7-methyl-5-(4-(trifluoromethoxy)phenyl)benzo[d]isoxazole] was tested. Which inhibition at 10 µM (hNav1.1 (SCN1A)) did it give?
A: 16.1%

Q: What about the inhibition at 10 µM (hNaV1.2 (SCN2A)) of the same molecule?
A: 52%

Q: With `FC(F)(F)Oc1ccc(-c2ccc3onc(OCCN4CCOCC4)c3c2)cc1` [Example 78, 3-(2-morpholinoethoxy)-5-(4-(trifluoromethoxy)phenyl)benzo[d]isoxazole] as the molecule, how does the inhibition at 10 µM (hNav1.1 (SCN1A)) read?
A: 39.9%

Q: What about the inhibition at 10 µM (hNaV1.2 (SCN2A)) of the same molecule?
A: 32.8%

Q: Which results are given for `FC(F)(F)Oc1ccc(-c2ccc3onc(OCCn4cnnc4)c3c2)cc1` [Example 63, 3-(2-(4H-1,2,4-triazol-4-yl)ethoxy)-5-(4-(trifluoromethoxy)phenyl)benzo[d]isoxazole]?
A: inhibition at 10 µM (hNav1.1 (SCN1A)): 77.6%; inhibition at 10 µM (hNaV1.2 (SCN2A)): 68%

Q: `COc1cc(-c2ccc(C(F)(F)F)cc2F)cc2c(OCc3ncccn3)noc12` [Example 24, 5-(2-fluoro-4-(trifluoromethyl)phenyl)-7-methoxy-3-(pyrimidin-2-ylmethoxy)benzo[d]isoxazole] was tested. Which inhibition at 10 µM (hNav1.1 (SCN1A)) did it give?
A: < 5%

Q: What about the inhibition at 10 µM (hNaV1.2 (SCN2A)) of the same molecule?
A: < 5%

Q: Which inhibition at 10 µM (hNav1.1 (SCN1A)) does the source give for `Cc1nc(C)n(CCOc2noc3ccc(-c4ccc(OC(F)(F)F)cc4)cc23)n1` [Example 76, 3-(2-(3,5-dimethyl-1H-1,2,4-triazol-1-yl)ethoxy)-5-(4-(trifluoromethoxy)phenyl)benzo[d]isoxazole] here?
A: 27.2%

Q: And the inhibition at 10 µM (hNaV1.2 (SCN2A))?
A: 27.9%

Q: What does the source list for `Cc1cccc(COc2noc3ccc(-c4ccc(OC(F)(F)F)cc4)cc23)n1` [Example 95, 3-((6-methylpyridin-2-yl)methoxy)-5-(4-(trifluoromethoxy)phenyl)benzo[d]isoxazole]?
A: inhibition at 10 µM (hNav1.1 (SCN1A)): < 5%; inhibition at 10 µM (hNaV1.2 (SCN2A)): < 5%

Q: `Cc1cc2onc(OCc3ncccn3)c2cc1-c1ccc(OC(F)(F)F)cc1` [Example 26, 6-methyl-3-(pyrimidin-2-ylmethoxy)-5-(4-(trifluoromethoxy)phenyl)benzo[d]isoxazole] was tested. Which inhibition at 10 µM (hNav1.1 (SCN1A)) did it give?
A: 58.6%

Q: And the inhibition at 10 µM (hNaV1.2 (SCN2A))?
A: < 5%

Q: How did the inhibition at 10 µM (hNav1.1 (SCN1A)) turn out when `CCn1cncc1COc1noc2ccc(-c3ccc(OC(F)(F)F)cc3)cc12` [Example 49, 3-((1-ethyl-1H-imidazol-5-yl)methoxy)-5-(4-(trifluoromethoxy)phenyl)benzo[d]isoxazole] was run?
A: 56.4%

Q: What about the inhibition at 10 µM (hNaV1.2 (SCN2A)) of the same molecule?
A: 49.9%

Q: Which inhibition at 10 µM (hNav1.1 (SCN1A)) does the source give for `O=C1CC[C@H](COc2noc3ccc(-c4ccc(OC(F)(F)F)cc4)cc23)N1` [Example 61, (R)-5-(((5-(4-(trifluoromethoxy)phenyl)benzo[d]isoxazol-3-yl)oxy)methyl)pyrrolidin-2-one] here?
A: 28.7%

Q: And the inhibition at 10 µM (hNaV1.2 (SCN2A))?
A: 31%

Q: Which inhibition at 10 µM (hNav1.1 (SCN1A)) does the source give for `CC(Oc1noc2ccc(-c3ccc(OC(F)(F)F)cc3)cc12)c1ccccn1` (stereo not drawn) [Example 98, 3-(1-(pyridin-2-yl)ethoxy)-5-(4-(trifluoromethoxy)phenyl)benzo[d]isoxazole] here?
A: 15.9%

Q: And the inhibition at 10 µM (hNaV1.2 (SCN2A))?
A: < 5%

Q: `Cn1cc(COc2noc3ccc(-c4ccc(OC(F)(F)F)cc4)cc23)nn1` [Example 44] was tested. Which inhibition at 10 µM (hNav1.1 (SCN1A)) did it give?
A: 21.1%

Q: What about the inhibition at 10 µM (hNaV1.2 (SCN2A)) of the same molecule?
A: 25.4%

Q: Which inhibition at 10 µM (hNav1.1 (SCN1A)) does the source give for `Fc1cc2onc(OCc3ncccn3)c2cc1-c1ccc(OC(F)(F)F)cc1` [Example 31, 6-fluoro-3-(pyrimidin-2-ylmethoxy)-5-(4-(trifluoromethoxy)phenyl)benzo[d]isoxazole] here?
A: < 5%

Q: And the inhibition at 10 µM (hNaV1.2 (SCN2A))?
A: < 5%

Q: How did the inhibition at 10 µM (hNav1.1 (SCN1A)) turn out when `Cc1cc(-c2ccc(OC(F)(F)F)cc2)cc2c(OCc3ncco3)noc12` [Example 91, 7-methyl-3-(oxazol-2-ylmethoxy)-5-(4-(trifluoromethoxy)phenyl)benzo[d]isoxazole] was run?
A: 31.1%

Q: And the inhibition at 10 µM (hNaV1.2 (SCN2A))?
A: 46.9%

Q: What does the source list for `Cn1cncc1COc1noc2ccc(-c3ccc(OC(F)(F)F)cc3)cc12` [Example 50, 3-((1-methyl-1H-imidazol-5-yl)methoxy)-5-(4-(trifluoromethoxy)phenyl)benzo[d]isoxazole]?
A: inhibition at 10 µM (hNav1.1 (SCN1A)): 49.2%; inhibition at 10 µM (hNaV1.2 (SCN2A)): 27.3%

Q: What does the source list for `FC1(F)Oc2ccc(-c3ccc4onc(OCc5ncccn5)c4c3)cc2O1` [Example 30, 5-(2,2-difluorobenzo[d][1,3]dioxol-5-yl)-3-(pyrimidin-2-ylmethoxy)benzo[d]isoxazole]?
A: inhibition at 10 µM (hNav1.1 (SCN1A)): < 5%; inhibition at 10 µM (hNaV1.2 (SCN2A)): < 5%

Q: `COc1cc(-c2ccc(OC(F)(F)F)c(C)c2)cc2c(OCc3ncccn3)noc12` [Example 23, 7-methoxy-5-(3-methyl-4-(trifluoromethoxy)phenyl)-3-(pyrimidin-2-ylmethoxy)benzo[d]isoxazole] was tested. Which inhibition at 10 µM (hNav1.1 (SCN1A)) did it give?
A: < 5%

Q: What about the inhibition at 10 µM (hNaV1.2 (SCN2A)) of the same molecule?
A: 9.9%

Q: Which inhibition at 10 µM (hNav1.1 (SCN1A)) does the source give for `CC1(COc2noc3ccc(-c4ccc(OC(F)(F)F)cc4)cc23)COC1` [Example 92, 3-((3-methyloxetan-3-yl)methoxy)-5-(4-(trifluoromethoxy)phenyl)benzo[d]isoxazole] here?
A: < 5%

Q: And the inhibition at 10 µM (hNaV1.2 (SCN2A))?
A: < 5%

Q: What does the source list for `Fc1cc(C(F)(F)F)ccc1-c1cc2c(OCc3ncccn3)noc2cc1F` [Example 33, 6-fluoro-5-(2-fluoro-4-(trifluoromethyl)phenyl)-3-(pyrimidin-2-ylmethoxy)benzo[d]isoxazole]?
A: inhibition at 10 µM (hNav1.1 (SCN1A)): < 5%; inhibition at 10 µM (hNaV1.2 (SCN2A)): 5.5%

Q: What does the source list for `OCC1(COc2noc3ccc(-c4ccc(OC(F)(F)F)cc4)cc23)COC1` [Example 97, (3-(((5-(4-(trifluoromethoxy)phenyl)benzo[d]isoxazol-3-yl)oxy)methyl)oxetan-3-yl)methanol]?
A: inhibition at 10 µM (hNav1.1 (SCN1A)): 46.3%; inhibition at 10 µM (hNaV1.2 (SCN2A)): 34.3%

Q: What does the source list for `Cc1cccnc1COc1noc2ccc(-c3ccc(OC(F)(F)F)cc3)cc12` [Example 93, 3-((3-methylpyridin-2-yl)methoxy)-5-(4-(trifluoromethoxy)phenyl)benzo[d]isoxazole]?
A: inhibition at 10 µM (hNav1.1 (SCN1A)): < 5%; inhibition at 10 µM (hNaV1.2 (SCN2A)): < 5%

Q: For `FC(F)(F)Oc1ccc(-c2ccc3onc(OCc4cn[nH]c4)c3c2)cc1` [Example 45, 3-((1H-pyrazol-4-yl)methoxy)-5-(4-(trifluoromethoxy)phenyl)benzo[d]isoxazole], which inhibition at 10 µM (hNav1.1 (SCN1A)) is on record?
A: 63.8%

Q: And the inhibition at 10 µM (hNaV1.2 (SCN2A))?
A: 42.8%

Q: With `Cc1cc(OC(F)(F)F)ccc1-c1cc2c(OCc3ncccn3)noc2cc1C` [Example 29, 6-methyl-5-(2-methyl-4-(trifluoromethoxy)phenyl)-3-(pyrimidin-2-ylmethoxy)benzo[d]isoxazole] as the molecule, how does the inhibition at 10 µM (hNav1.1 (SCN1A)) read?
A: < 5%

Q: What about the inhibition at 10 µM (hNaV1.2 (SCN2A)) of the same molecule?
A: < 5%

Q: What does the source list for `COc1ccnc(COc2noc3ccc(-c4ccc(OC(F)(F)F)cc4)cc23)c1` [Example 81, 3-((4-methoxypyridin-2-yl)methoxy)-5-(4-(trifluoromethoxy)phenyl)benzo[d]isoxazole]?
A: inhibition at 10 µM (hNav1.1 (SCN1A)): < 5%; inhibition at 10 µM (hNaV1.2 (SCN2A)): 21.8%

Q: How did the inhibition at 10 µM (hNav1.1 (SCN1A)) turn out when `FC(F)(F)Oc1ccc(-c2ccc3onc(OCc4cn5ccccc5n4)c3c2)cc1` [Example 51, 3-(imidazo[1,2-a]pyridin-2-ylmethoxy)-5-(4-(trifluoromethoxy)phenyl)benzo[d]isoxazole] was run?
A: 30%

Q: What about the inhibition at 10 µM (hNaV1.2 (SCN2A)) of the same molecule?
A: 15.7%

Q: Which inhibition at 10 µM (hNav1.1 (SCN1A)) does the source give for `Fc1cc2onc(OCc3ncccn3)c2cc1-c1ccc2c(c1)OC(F)(F)O2` [Example 35, 5-(2,2-difluorobenzo[d][1,3]dioxol-5-yl)-6-fluoro-3-(pyrimidin-2-ylmethoxy)benzo[d]isoxazole] here?
A: < 5%

Q: What about the inhibition at 10 µM (hNaV1.2 (SCN2A)) of the same molecule?
A: < 5%

Q: How did the inhibition at 10 µM (hNav1.1 (SCN1A)) turn out when `COc1cc(-c2ccc(OC(F)(F)F)cc2C)cc2c(OCc3ncccn3)noc12` [Example 25, 7-methoxy-5-(2-methyl-4-(trifluoromethoxy)phenyl)-3-(pyrimidin-2-ylmethoxy)benzo[d]isoxazole] was run?
A: < 5%

Q: What about the inhibition at 10 µM (hNaV1.2 (SCN2A)) of the same molecule?
A: < 5%

Q: Which results are given for `CC(COc1noc2ccc(-c3ccc(OC(F)(F)F)cc3)cc12)n1cncn1` (stereo not drawn) [Example 77, 3-(2-(1H-1,2,4-triazol-1-yl)propoxy)-5-(4-(trifluoromethoxy)phenyl)benzo[d]isoxazole]?
A: inhibition at 10 µM (hNav1.1 (SCN1A)): 49.2%; inhibition at 10 µM (hNaV1.2 (SCN2A)): 31.8%

Q: With `Cc1nc(C)n(C(C)COc2noc3ccc(-c4ccc(OC(F)(F)F)cc4)cc23)n1` (stereo not drawn) [Example 79, 3-(2-(3,5-dimethyl-1H-1,2,4-triazol-1-yl)propoxy)-5-(4-(trifluoromethoxy)phenyl)benzo[d]isoxazole] as the molecule, how does the inhibition at 10 µM (hNav1.1 (SCN1A)) read?
A: 36.8%

Q: And the inhibition at 10 µM (hNaV1.2 (SCN2A))?
A: 34%

Q: What does the source list for `Cc1cc(-c2cc3c(OCc4ncccn4)noc3cc2C)ccc1OC(F)(F)F` [Example 27, 6-methyl-5-(3-methyl-4-(trifluoromethoxy)phenyl)-3-(pyrimidin-2-ylmethoxy)benzo[d]isoxazole]?
A: inhibition at 10 µM (hNav1.1 (SCN1A)): < 5%; inhibition at 10 µM (hNaV1.2 (SCN2A)): < 5%

Q: Which inhibition at 10 µM (hNav1.1 (SCN1A)) does the source give for `CC(C)n1ccnc1COc1noc2ccc(-c3ccc(OC(F)(F)F)cc3)cc12` [Example 48, 3-((1-isopropyl-1H-imidazol-2-yl)methoxy)-5-(4-(trifluoromethoxy)phenyl)benzo[d]isoxazole] here?
A: 52.8%

Q: And the inhibition at 10 µM (hNaV1.2 (SCN2A))?
A: 54.2%

Q: How did the inhibition at 10 µM (hNav1.1 (SCN1A)) turn out when `Cc1cc(-c2cc(C)c3onc(OCc4ncccn4)c3c2)ccc1OC(F)(F)F` [Example 18, 7-methyl-5-(3-methyl-4-(trifluoromethoxy)phenyl)-3-(pyrimidin-2-ylmethoxy)benzo[d]isoxazole] was run?
A: < 5%

Q: And the inhibition at 10 µM (hNaV1.2 (SCN2A))?
A: < 5%

Q: `FC(F)(F)COc1ccc(-c2ccc3onc(OCc4ncccn4)c3c2)cn1` [Example 21, 3-(pyrimidin-2-ylmethoxy)-5-(6-(2,2,2-trifluoroethoxy)pyridin-3-yl)benzo[d]isoxazole] was tested. Which inhibition at 10 µM (hNav1.1 (SCN1A)) did it give?
A: < 5%

Q: And the inhibition at 10 µM (hNaV1.2 (SCN2A))?
A: < 5%

Q: Which inhibition at 10 µM (hNav1.1 (SCN1A)) does the source give for `FC(F)(F)Oc1ccc(-c2ccc3onc(OCc4nccn4-c4ccccc4)c3c2)cc1` [Example 64, 3-((1-phenyl-1H-imidazol-2-yl)methoxy)-5-(4-(trifluoromethoxy)phenyl)benzo[d]isoxazole] here?
A: 33.2%

Q: What about the inhibition at 10 µM (hNaV1.2 (SCN2A)) of the same molecule?
A: 34.7%

From patent US9416115B2, “Fused heterocyclic compounds as ion channel modulators” (Gilead Sciences, Inc., priority 2013, dated 2016)
